Results: US20080161232A1, “C5a Receptor Antagonist” (JERINI AG, priority 2005, published 2008)
Starred links: 1 amine or outer side, 2 acyl side, 3 side chain; linkers in the order of their positions; H or OH if unused. Non-standard residues stand in square brackets, D forms with d. Residues, ends and D or L forms follow the SMILES beside them. *: point of attachment. N(3,4-(MeO)2phenethyl)Gly = COc1ccc(CCNCC(=O)O)cc1OC; Phe(4-guanidino) = N=C(N)Nc1ccc(C[C@H](N)C(=O)O)cc1; X2 = O=C([C@H](CCCN(C1=NCCN1)C1=NCCN1)N[*:1])[*:2]; Gly(N-(CH2)3N-pyrrolidone) = O=C(O)CNCCCN1CCCC1=O; Orn(2-imidazolinyl) = N[C@@H](CCCNC1=NCCN1)C(=O)O; X3 = O=C([C@H](CCNC1=NCCN1)N[*:1])[*:2]; Phe(4-F) = N[C@@H](Cc1ccc(F)cc1)C(=O)O; X4 = O=C([C@H](CNC1=NCCN1)N[*:1])[*:2]; X5 = CCN(CC)CCC[C@H](N[*:1])C(=O)[*:2]; 1Nal = N[C@@H](Cc1cccc2ccccc12)C(=O)O; Bta = N[C@@H](Cc1csc2ccccc12)C(=O)O; cisHyp = O=C(O)[C@@H]1C[C@H](O)CN1; Hyp = O=C(O)[C@@H]1C[C@@H](O)CN1; d(hLeu) = CC(C)CC[C@@H](N)C(=O)O; hArg = N=C(N)NCCCC[C@H](N)C(=O)O; dCha = N[C@H](CC1CCCCC1)C(=O)O; Agb = N=C(N)NCC[C@H](N)C(=O)O; NMeS = CN[C@@H](CO)C(=O)O; hSer = N[C@@H](CCO)C(=O)O; NMeA = CN[C@@H](C)C(=O)O; Orn = NCCC[C@H](N)C(=O)O; Aze = O=C(O)[C@@H]1CCN1; NPrGly = CCCNCC(=O)O; Nme = COCCNCC(=O)O; Ms = CS(=O)(=O)*

target: T1, human C5aR(CD88) (Homo sapiens, UniProt P21730); test: Determination of the IC50 value in an enzyme release assay (functional assay, antagonistic activity); format: cell-based; conditions: antagonistic activity; IC50 group in enzyme release assay, RBL cells expressing human C5aR(CD88); read-out: activity (group)
T1 construct: expressed in transfected cells; host or cells: rat basophilic leukemia cells (RBL)
T1 sequence (P21730 1-350): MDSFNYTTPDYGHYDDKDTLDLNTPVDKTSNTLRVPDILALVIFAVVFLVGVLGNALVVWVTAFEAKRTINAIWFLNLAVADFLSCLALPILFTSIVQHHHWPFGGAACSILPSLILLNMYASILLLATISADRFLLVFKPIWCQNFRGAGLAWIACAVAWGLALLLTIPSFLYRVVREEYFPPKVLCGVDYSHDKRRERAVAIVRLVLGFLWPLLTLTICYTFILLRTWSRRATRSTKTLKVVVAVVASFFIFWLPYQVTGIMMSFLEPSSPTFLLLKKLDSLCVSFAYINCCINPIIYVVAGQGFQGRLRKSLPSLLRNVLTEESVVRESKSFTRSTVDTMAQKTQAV

| Structure (SMILES) | IC50 [nM] |
| --- | --- |
| CC(=O)N[C@@H](Cc1ccccc1)C(=O)N[C@@H](CCNC1=NCCN1)C(=O)N1CCC[C@H]1C(=O)N[C@H](CC1CCCCC1)C(=O)N[C@@H](Cc1csc2ccccc12)C(=O)N[C@@H](Cc1ccccc1)C(N)=O [Compound 220, Ac-Phe-Fcn-Pro-cha-Bta-Phe-NH2] (Ac-F[X3]P[dCha][Bta]F-NH2) | 10 to 20 |
| CC(=O)N[C@@H](Cc1ccccc1)C(=O)N[C@@H](CNC1=NCCN1)C(=O)N1CCC[C@H]1C(=O)N[C@H](CC1CCCCC1)C(=O)N[C@@H](Cc1csc2ccccc12)C(=O)N[C@@H](Cc1ccccc1)C(N)=O [Compound 222, Ac-Phe-Fco-Pro-cha-Bta-Phe-NH2] (Ac-F[X4]P[dCha][Bta]F-NH2) | 50 to 200 |
| CC(=O)N[C@@H](Cc1ccccc1)C(=O)N[C@@H](CCCN(C1=NCCN1)C1=NCCN1)C(=O)N1CC[C@H]1C(=O)N[C@H](CC1CCCCC1)C(=O)N[C@@H](Cc1csc2ccccc12)C(=O)N[C@@H](Cc1ccccc1)C(N)=O [Compound 223, Ac-Phe-Fcp-Aze-cha-Bta-Phe-NH2] (Ac-F[X2][Aze][dCha][Bta]F-NH2) | 20 to 50 |
| CC(=O)N[C@@H](Cc1ccccc1)C(=O)N[C@@H](CCCNC1=NCCN1)C(=O)N1CC[C@H]1C(=O)N[C@H](CC1CCCCC1)C(=O)N[C@@H](Cc1csc2ccccc12)C(=O)N[C@@H](Cc1ccccc1)C(N)=O [Compound 224, Ac-Phe-Ffa-Aze-cha-Bta-Phe-NH2] (Ac-F[Orn(2-imidazolinyl)][Aze][dCha][Bta]F-NH2) | 20 to 50 |
| CC(=O)N[C@@H](Cc1ccccc1)C(=O)N[C@@H](CCCNC1=NCCN1)C(=O)N1CCC[C@H]1C(=O)N[C@H](CC1CCCCC1)C(=O)N[C@@H](Cc1csc2ccccc12)C(=O)N[C@@H](Cc1ccccc1)C(N)=O [Compound 225, Ac-Phe-Ffa-Pro-cha-Bta-Phe-NH2] (Ac-F[Orn(2-imidazolinyl)]P[dCha][Bta]F-NH2) | 20 to 50 |
| CC(=O)N[C@@H](Cc1ccccc1)C(=O)N[C@@H](CCCNC1=NCCN1)C(=O)N1CCC[C@H]1C(=O)N[C@H](CCC(C)C)C(=O)N[C@@H](Cc1csc2ccccc12)C(=O)N[C@@H](Cc1ccccc1)C(N)=O [Compound 226, Ac-Phe-Ffa-Pro-hle-Bta-Phe-NH2] (Ac-F[Orn(2-imidazolinyl)]P[d(hLeu)][Bta]F-NH2) | 10 to 20 |
| CC(=O)N[C@@H](Cc1ccccc1)C(=O)N[C@@H](CCCNS(C)(=O)=O)C(=O)N1CCC[C@H]1C(=O)N[C@H](CC1CCCCC1)C(=O)N[C@@H](Cc1csc2ccccc12)C(=O)N[C@@H](Cc1ccccc1)C(N)=O [Compound 227, Ac-Phe-G23-Pro-cha-Bta-Phe-NH2] (Ac-F[Orn](Ms)P[dCha][Bta]F-NH2) | 50 to 200 |
| CC(=O)N[C@@H](Cc1ccccc1)C(=O)N[C@@H](Cc1ccc(NC(=N)N)cc1)C(=O)N1CCC[C@H]1C(=O)N[C@H](CC1CCCCC1)C(=O)N[C@@H](Cc1csc2ccccc12)C(=O)N[C@@H](Cc1ccccc1)C(N)=O [Compound 228, Ac-Phe-Guf-Pro-cha-Bta-Phe-NH2] (Ac-F[Phe(4-guanidino)]P[dCha][Bta]F-NH2) | 20 to 50 |
| CC(=O)N[C@@H](Cc1ccccc1)C(=O)N[C@@H](CCCCNC(=N)N)C(=O)N1CC[C@H]1C(=O)N[C@H](CC1CCCCC1)C(=O)N[C@@H](Cc1csc2ccccc12)C(=O)N[C@@H](Cc1ccccc1)C(N)=O [Compound 229, Ac-Phe-Har-Aze-cha-Bta-Phe-NH2] (Ac-F[hArg][Aze][dCha][Bta]F-NH2) | 10 to 20 |
| CC(=O)N[C@@H](Cc1ccccc1)C(=O)N[C@@H](Cc1c[nH]cn1)C(=O)N1CCC[C@H]1C(=O)N[C@H](CC1CCCCC1)C(=O)N[C@@H](Cc1csc2ccccc12)C(=O)N[C@@H](Cc1ccccc1)C(N)=O [Compound 230, Ac-Phe-His-Pro-cha-Bta-Phe-NH2] (Ac-FHP[dCha][Bta]F-NH2) | 50 to 200 |
| CC(=O)N[C@@H](Cc1ccccc1)C(=O)N[C@@H](CCNC(=N)N)C(=O)N1CCC[C@H]1C(=O)N[C@H](CC1CCCCC1)C(=O)N[C@@H](Cc1csc2ccccc12)C(=O)N[C@@H](Cc1ccccc1)C(N)=O [Compound 231, Ac-Phe-L22-Pro-cha-Bta-Phe-NH2] (Ac-F[Agb]P[dCha][Bta]F-NH2) | 10 to 20 |
| CC(=O)NCCC[C@H](NC(=O)[C@H](Cc1ccccc1)NC(C)=O)C(=O)N1CCC[C@H]1C(=O)N[C@H](CC1CCCCC1)C(=O)N[C@@H](Cc1csc2ccccc12)C(=O)N[C@@H](Cc1ccccc1)C(N)=O [Compound 232, Ac-Phe-OrA-Pro-cha-Bta-Phe-NH2] (Ac-F[Orn](Ac)P[dCha][Bta]F-NH2) | 50 to 200 |
| CCN(CC)CCC[C@H](NC(=O)[C@H](Cc1ccccc1)NC(C)=O)C(=O)N1CCC[C@H]1C(=O)N[C@H](CC1CCCCC1)C(=O)N[C@@H](Cc1csc2ccccc12)C(=O)N[C@@H](Cc1ccccc1)C(N)=O [Compound 233, Ac-Phe-OrE-Pro-cha-Bta-Phe-NH2] (Ac-F[X5]P[dCha][Bta]F-NH2) | 50 to 200 |
| CC(=O)N[C@@H](Cc1ccccc1)C(=O)N[C@@H](CCCN)C(=O)N1CC[C@H]1C(=O)N[C@H](CCC(C)C)C(=O)N[C@@H](Cc1csc2ccccc12)C(=O)N[C@@H](Cc1ccccc1)C(N)=O [Compound 234, Ac-Phe-Orn-Aze-hle-Bta-Phe-NH2] (Ac-F[Orn][Aze][d(hLeu)][Bta]F-NH2) | 20 to 50 |
| CC(=O)N[C@@H](Cc1ccccc1)C(=O)N[C@@H](CCCN)C(=O)N1C[C@@H](O)C[C@H]1C(=O)N[C@H](CC1CCCCC1)C(=O)N[C@@H](Cc1csc2ccccc12)C(=O)N[C@@H](Cc1ccccc1)C(N)=O [Compound 235, Ac-Phe-Orn-Chy-cha-Bta-Phe-NH2] (Ac-F[Orn][cisHyp][dCha][Bta]F-NH2) | 50 to 200 |
| CC(=O)N[C@@H](Cc1ccccc1)C(=O)N[C@@H](CCCN)C(=O)N1C[C@@H](O)C[C@H]1C(=O)N[C@H](CCC(C)C)C(=O)N[C@@H](Cc1ccc(F)cc1)C(=O)N[C@@H](Cc1ccccc1)C(N)=O [Compound 236, Ac-Phe-Orn-Chy-hle-Pff-Phe-NH2] (Ac-F[Orn][cisHyp][d(hLeu)][Phe(4-F)]F-NH2) | 50 to 200 |
| CCCN(CC(=O)N[C@H](CC1CCCCC1)C(=O)N[C@@H](Cc1csc2ccccc12)C(=O)N[C@@H](Cc1ccccc1)C(N)=O)C(=O)[C@H](CCCN)NC(=O)[C@H](Cc1ccccc1)NC(C)=O [Compound 237, Ac-Phe-Orn-G24-cha-Bta-Phe-NH2] (Ac-F[Orn][NPrGly][dCha][Bta]F-NH2) | 50 to 200 |
| COCCN(CC(=O)N[C@H](CC1CCCCC1)C(=O)N[C@@H](Cc1csc2ccccc12)C(=O)N[C@@H](Cc1ccccc1)C(N)=O)C(=O)[C@H](CCCN)NC(=O)[C@H](Cc1ccccc1)NC(C)=O [Compound 238, Ac-Phe-Orn-G25-cha-Bta-Phe-NH2] (Ac-F[Orn][Nme][dCha][Bta]F-NH2) | 50 to 200 |
| CC(=O)N[C@@H](Cc1ccccc1)C(=O)N[C@@H](CCCN)C(=O)N(CCCN1CCCC1=O)CC(=O)N[C@H](CC1CCCCC1)C(=O)N[C@@H](Cc1csc2ccccc12)C(=O)N[C@@H](Cc1ccccc1)C(N)=O [Compound 241, Ac-Phe-Orn-G30-cha-Bta-Phe-NH2] (Ac-F[Orn][Gly(N-(CH2)3N-pyrrolidone)][dCha][Bta]F-NH2) | 50 to 200 |
| COc1ccc(CCN(CC(=O)N[C@H](CC2CCCCC2)C(=O)N[C@@H](Cc2csc3ccccc23)C(=O)N[C@@H](Cc2ccccc2)C(N)=O)C(=O)[C@H](CCCN)NC(=O)[C@H](Cc2ccccc2)NC(C)=O)cc1OC [Compound 242, Ac-Phe-Orn-G31-cha-Bta-Phe-NH2] (Ac-F[Orn][N(3,4-(MeO)2phenethyl)Gly][dCha][Bta]F-NH2) | 50 to 200 |
| CC(=O)N[C@@H](Cc1ccccc1)C(=O)N[C@@H](CCCN)C(=O)N[C@@H](CCO)C(=O)N[C@H](CC1CCCCC1)C(=O)N[C@@H](Cc1csc2ccccc12)C(=O)N[C@@H](Cc1ccccc1)C(N)=O [Compound 243, Ac-Phe-Orn-Hse-cha-Bta-Phe-NH2] (Ac-F[Orn][hSer][dCha][Bta]F-NH2) | 50 to 200 |
| CC(=O)N[C@@H](Cc1ccccc1)C(=O)N[C@@H](CCCN)C(=O)N1C[C@H](O)C[C@H]1C(=O)N[C@H](CCC(C)C)C(=O)N[C@@H](Cc1csc2ccccc12)C(=O)N[C@@H](Cc1ccccc1)C(N)=O [Compound 244, Ac-Phe-Orn-Hyp-hle-Bta-Phe-NH2] (Ac-F[Orn][Hyp][d(hLeu)][Bta]F-NH2) | 50 to 200 |
| CC(=O)N[C@@H](Cc1ccccc1)C(=O)N[C@@H](CCCN)C(=O)N1C[C@H](O)C[C@H]1C(=O)N[C@H](CCC(C)C)C(=O)N[C@@H](Cc1ccc(F)cc1)C(=O)N[C@@H](Cc1ccccc1)C(N)=O [Compound 245, Ac-Phe-Orn-Hyp-hle-Pff-Phe-NH2] (Ac-F[Orn][Hyp][d(hLeu)][Phe(4-F)]F-NH2) | 50 to 200 |
| CC(=O)N[C@@H](Cc1ccccc1)C(=O)N[C@@H](CCCN)C(=O)N(C)[C@@H](C)C(=O)N[C@H](CC1CCCCC1)C(=O)N[C@@H](Cc1csc2ccccc12)C(=O)N[C@@H](Cc1ccccc1)C(N)=O [Compound 246, Ac-Phe-Orn-NMA-cha-Bta-Phe-NH2] (Ac-F[Orn][NMeA][dCha][Bta]F-NH2) | 50 to 200 |
| CC(=O)N[C@@H](Cc1ccccc1)C(=O)N[C@@H](CCCN)C(=O)N(C)[C@@H](CO)C(=O)N[C@H](CC1CCCCC1)C(=O)N[C@@H](Cc1csc2ccccc12)C(=O)N[C@@H](Cc1ccccc1)C(N)=O [Compound 247, Ac-Phe-Orn-NMS-cha-Bta-Phe-NH2] (Ac-F[Orn][NMeS][dCha][Bta]F-NH2) | 50 to 200 |
| CC(=O)N[C@@H](Cc1ccccc1)C(=O)N[C@@H](CCCN)C(=O)N1CCC[C@H]1C(=O)N[C@H](CC1CCCCC1)C(=O)N[C@@H](Cc1cccc2ccccc12)C(=O)N[C@@H](Cc1ccccc1)C(N)=O [Compound 248, Ac-Phe-Orn-Pro-cha-1Ni-Phe-NH2] (Ac-F[Orn]P[dCha][1Nal]F-NH2) | 50 to 200 |
